Experiments:
[1] = molecular target: recombinant CSF1R kinase (Homo sapiens (Human), UniProt P07333); assay: CSF1R kinase activity ELISA assay; assay type: biochemical; settings: poly(Glu, Tyr)4:1 substrate, ATP 5 μM, read-out: IC50, inhibition of CSF1R kinase activity
[2] = tested on: human colorectal cancer HT-29 subcutaneous xenografts; assay: Human colorectal cancer HT-29 subcutaneous xenografts in nude mice; assay type: in vivo, BALB/c nude mice; settings: for Body Weight (g) D 21 / RTV (mean ± SD) / TV (mm3, mean ± SD) D 21: D 21; for T/C (%): Day 21
Excerpt: BALB/c female nude mice of 6 weeks old were used, and were provided by Shanghai Lingchang Biotechnology Co., Ltd.
Human colorectal cancer HT-29 cells were subcutaneously inoculated into the right axillary fossa of a nude mouse (5×10^6 cells/mouse). After a xenograft was formed, the tumor was transferred to a nude mouse for 1 passage.
Tumor tissues at the vigorous growth stage were removed and cut into pieces of approximately 1.5 mm^3. The tumor fragments were inoculated subcutaneously into the right axillary fossa of nude mice under aseptic conditions. The diameters of the subcutaneous xenografts in nude mice were measured with a vernier caliper. The animals were randomly grouped after the xenografts reached an average volume of about 120 mm^3. Compound I was administered orally at doses of 20 mg/kg, 10 mg/kg and 5 mg/kg twice a day for 21 consecutive days. An equal volume of a blank preparation was administered orally twice a day for 21 consecutive days. The positive control drug Axitinib was administered orally at a dose of 40 mg/kg group twice a day for 21 consecutive days. An equal volume of water for injection was administered to the animals in the solvent group. Throughout the experiment, the diameters of the xenografts were measured twice a week and the mice were weighed at the same time. The tumor volume (TV) was calculated as TV=½×a×b^2, where “a” and “b” denote the length and width of a tumor, respectively. The relative tumor volume (RTV) was calculated from the measurement results with the calculation formula RTV=Vt/V0, in which V0 is the tumor volume measured upon administration after grouping (i.e., D0) and Vt is the tumor volume from each measurement. The evaluation index of anti-tumor activity is the relative tumor proliferation rate T/C (%), which is calculated as T/C (%)=(TRTV/CRTV)×100%, in which TRTV denotes the RTV from the treatment group and CRTV denotes the RTV from solvent group.

[3] = tested on: human glioma U87MG subcutaneous xenografts; assay: Human glioma U87MG subcutaneous xenografts in nude mice; assay type: in vivo, BALB/c nude mice; settings: for Body Weight (g) D 21 / RTV (mean ± SD) / TV (mm^3, mean ± SD) D 21: D 21; for T/C (%): Day 21
Method: BALB/c nude female mice of 3-4 weeks old were used, and were provided by […] […] OF MATERIA MEDICA, CHINESE ACADEMY OF SCIENCES.
Human glioma U87MG cells were subcutaneously inoculated into the right axillary fossa of a nude mouse (5×10^6 cells/mouse). After a xenograft was formed, the tumor was transferred to a nude mouse for 1 passage.
Tumor tissues at the vigorous growth stage were removed and cut into pieces of approximately 1.5 mm^3. The tumor fragments were inoculated subcutaneously into the right axillary fossa of nude mice under aseptic conditions. The diameters of the subcutaneous xenografts in nude mice were measured with a vernier caliper. The animals were randomly grouped after the xenografts reached an average volume of about 90 mm^3. Compound I was administered orally at doses of 40 mg/kg, 20 mg/kg and 10 mg/kg twice a day for 21 consecutive days. An equal volume of a blank preparation was administered orally twice a day for 21 consecutive days. The positive control drug Axitinib was administered orally at a dose of 40 mg/kg group twice a day for 21 consecutive days. An equal volume of water for injection was administered to the animals in the solvent group. Throughout the experiment, the diameters of the xenografts were measured twice a week and the mice were weighed at the same time. The tumor volume (TV) was calculated as TV=½×a×b^2, where “a” and “b” denote the length and width of a tumor, respectively. The relative tumor volume (RTV) was calculated from the measurement results with the calculation formula RTV=Vt/V0, in which V0 is the tumor volume measured upon administration after grouping (i.e., D0) and Vt is the tumor volume from each measurement. The evaluation index of anti-tumor activity is the relative tumor proliferation rate T/C (%), which is calculated as T/C (%)=(TRTV/CRTV)×100%, in which TRTV denotes the RTV from the treatment group and CRTV denotes the RTV from solvent group.

[4] = tested on: phosphorylated AKT (p-AKT) in BMDM; assay: Western blot of CSF1-stimulated AKT phosphorylation in BMDM; assay type: cell-based; settings: Mus musculus, 100 nM, 2 h, CSF1 50 ng/mL 15 min
Method: Bone marrow-derived macrophages, after induction by CSF1 for 5 to 7 days, were centrifuged to remove the previous medium. 2 mL of a serum-free medium was added. […] CSF1 factor was added at a final concentration of 50 ng/mL for stimulation for 15 minutes. The culture medium was discarded, and cells were washed three times with pre-cooled PBS. Then, the cells were lysed by adding 1×SDS gel loading buffer. The cell lysates were heated in a boiling water bath for 15 min, and then stored at −20° C.
A protein sample as described above was subjected to SDS-PAGE electrophoresis. Then, the protein was transferred to a nitrocellulose membrane using a semi-dry electrotransfer system. The nitrocellulose membrane was placed in a blocking solution (5% skim milk in TBS-T) and incubated for 2 h at room temperature. Then, the membrane was allowed to react with a primary antibody overnight at 4° C. After the membrane was washed with TBS-T for three times with 15 min each time, the membrane was allowed to react in a secondary antibody dilution at room temperature for 1-2 h. […]
The inhibitory effect of Compound I on CSF1R and its signaling pathway in mouse primary macrophages was detected by immunoblotting assays. Each experiment was independently repeated three times and all experimental results were quantified. […]

Chain of recombinant CSF1R kinase (P07333 20-972): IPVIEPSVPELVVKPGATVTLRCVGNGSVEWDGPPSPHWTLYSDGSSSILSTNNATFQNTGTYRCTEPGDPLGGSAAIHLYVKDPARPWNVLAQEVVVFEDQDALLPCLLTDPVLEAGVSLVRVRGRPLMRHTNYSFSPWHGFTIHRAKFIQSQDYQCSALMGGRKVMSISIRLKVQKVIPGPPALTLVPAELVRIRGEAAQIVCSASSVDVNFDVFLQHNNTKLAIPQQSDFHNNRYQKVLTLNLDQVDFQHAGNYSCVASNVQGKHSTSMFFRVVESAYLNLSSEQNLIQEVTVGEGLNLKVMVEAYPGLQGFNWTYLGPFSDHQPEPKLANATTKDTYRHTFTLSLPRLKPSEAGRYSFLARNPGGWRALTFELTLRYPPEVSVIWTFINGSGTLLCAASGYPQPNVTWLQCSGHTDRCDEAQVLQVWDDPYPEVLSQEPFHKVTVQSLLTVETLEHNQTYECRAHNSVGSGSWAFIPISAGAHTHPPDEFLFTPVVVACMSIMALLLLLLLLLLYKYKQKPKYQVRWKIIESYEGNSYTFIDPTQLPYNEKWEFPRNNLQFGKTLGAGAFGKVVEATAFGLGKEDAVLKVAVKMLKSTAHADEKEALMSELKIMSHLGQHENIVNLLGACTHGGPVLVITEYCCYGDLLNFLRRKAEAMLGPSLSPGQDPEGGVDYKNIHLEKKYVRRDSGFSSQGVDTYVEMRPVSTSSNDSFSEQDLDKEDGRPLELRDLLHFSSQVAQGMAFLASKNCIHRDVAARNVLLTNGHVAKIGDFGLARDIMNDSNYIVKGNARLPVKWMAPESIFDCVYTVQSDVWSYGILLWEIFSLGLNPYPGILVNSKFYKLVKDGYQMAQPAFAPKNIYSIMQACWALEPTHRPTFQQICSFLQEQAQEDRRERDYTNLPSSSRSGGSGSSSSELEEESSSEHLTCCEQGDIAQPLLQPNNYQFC

SMILES: Cc1cc(NC(=O)c2cccc3cc(-c4cccc5[nH]nc(N)c45)ccc23)ccc1F [Compound I]
- IC50 [1]: 19.3 ± 3.4 nM
- Body Weight (g) D 0 ([2]; 5 mg/kg bid × 21 po): 19.7 g
- TV (mm3, mean ± SD) D 0 ([2]; 5 mg/kg bid × 21 po): 113 ± 28 mm3
- Body Weight (g) D 21 ([2]; 5 mg/kg bid × 21 po): 18.6 g
- RTV (mean ± SD) ([2]; 5 mg/kg bid × 21 po): 3.76 ± 0.87
- TV (mm3, mean ± SD) D 21 ([2]; 5 mg/kg bid × 21 po): 427 ± 157 mm3
- T/C (%) ([2]; 5 mg/kg bid × 21 po): 42.70%
- Body Weight (g) D 0 ([2]; 10 mg/kg bid × 21 po): 19.8 g
- TV (mm3, mean ± SD) D 0 ([2]; 10 mg/kg bid × 21 po): 120 ± 33 mm3
- Body Weight (g) D 21 ([2]; 10 mg/kg bid × 21 po): 18.1 g
- RTV (mean ± SD) ([2]; 10 mg/kg bid × 21 po): 2.75 ± 1.04
- TV (mm3, mean ± SD) D 21 ([2]; 10 mg/kg bid × 21 po): 336 ± 173 mm3
- T/C (%) ([2]; 10 mg/kg bid × 21 po): 31.27%
- Body Weight (g) D 0 ([2]; 20 mg/kg bid × 21 po): 20.1 g
- TV (mm3, mean ± SD) D 0 ([2]; 20 mg/kg bid × 21 po): 121 ± 35 mm3
- Body Weight (g) D 21 ([2]; 20 mg/kg bid × 21 po): 18.2 g
- RTV (mean ± SD) ([2]; 20 mg/kg bid × 21 po): 1.53 ± 0.25
- TV (mm3, mean ± SD) D 21 ([2]; 20 mg/kg bid × 21 po): 188 ± 69 mm3
- T/C (%) ([2]; 20 mg/kg bid × 21 po): 17.38%
- Body Weight (g) D 0 ([3]; 10 mg/kg bid × 21 po): 15.7 g
- TV (mm^3, mean ± SD) D 0 ([3]; 10 mg/kg bid × 21 po): 87 ± 17 mm^3
- Body Weight (g) D 21 ([3]; 10 mg/kg bid × 21 po): 17.3 g
- RTV (mean ± SD) ([3]; 10 mg/kg bid × 21 po): 3.57 ± 1.06
- TV (mm^3, mean ± SD) D 21 ([3]; 10 mg/kg bid × 21 po): 302 ± 72 mm^3
- T/C (%) ([3]; 10 mg/kg bid × 21 po): 11.91%
- Body Weight (g) D 0 ([3]; 20 mg/kg bid × 21 po): 16.7 g
- TV (mm^3, mean ± SD) D 0 ([3]; 20 mg/kg bid × 21 po): 87 ± 17 mm^3
- Body Weight (g) D 21 ([3]; 20 mg/kg bid × 21 po): 16.9 g
- RTV (mean ± SD) ([3]; 20 mg/kg bid × 21 po): 2.44 ± 1.58
- TV (mm^3, mean ± SD) D 21 ([3]; 20 mg/kg bid × 21 po): 200 ± 100 mm^3
- T/C (%) ([3]; 20 mg/kg bid × 21 po): 8.14%
- Body Weight (g) D 0 ([3]; 40 mg/kg bid × 21 po): 17.0 g
- TV (mm^3, mean ± SD) D 0 ([3]; 40 mg/kg bid × 21 po): 87 ± 15 mm^3
- Body Weight (g) D 21 ([3]; 40 mg/kg bid × 21 po): 17.6 g
- RTV (mean ± SD) ([3]; 40 mg/kg bid × 21 po): 2.93 ± 0.50
- TV (mm^3, mean ± SD) D 21 ([3]; 40 mg/kg bid × 21 po): 251 ± 37 mm^3
- T/C (%) ([3]; 40 mg/kg bid × 21 po): 9.77%
- inhibition at 0.1 µM [4]: 64.4%

Source: patent publication US20230382871A1, “CSF1R KINASE INHIBITOR AND USE THEREOF” (SHANGHAI INSTITUTE OF MATERIA MEDICA, CHINESE ACADEMY OF …, priority 2020, published 2023)
